System: male CD rats
Test: Forced swimming test (FST) for antidepressive effect
Format: in vivo
Settings: 1 mg/kg
Source text: A more specific test for antidepressive activity is provided by the forced swimming test (FST) developed by Porsolt (Porsolt et al., 1978. Behavioural despair in rats: a new model sensitive to antidepressant treatments, Eur. J. Pharmacol. 47, 379-391).
In a so-called “forced swimming test”, the test animals (rats) are challenged by a stress situation from which they cannot escape by their own efforts. For this purpose, rats are at first left in a water-filled glass cylinder for a time of 15 minutes in a preliminary test (conditioning) one day before the actual test. The filling level is matched to the animals' body weight, so that every animal can support itself with the paws and tail and can keep its nose above water with minimum swimming movements. […] Twenty-four hours after this preliminary test, the test with valerian extract is performed in which the rats are again inserted into the water cylinders and the duration of immobility over a period of 5 minutes is cumulatively recorded.
For testing the valerian formulations on male CD rats, a pretreatment was used for 16 days, and the formulation according to Example 2b) was employed. […] The experiment was recorded by means of a video camera, and the time of immobility of the animals was later detected manually on the screen.

CN1C(=O)CN=C(c2ccccc2)c2cc(Cl)ccc21 [Diazepam]
Shortening of immobility time as compared to the control group: 28%

Source: patent US8512769B2, “Valerian extract preparation” (priority 2006, dated 2013)
